Experimental data published in publication PMC11871328 (Communications Biology, 2025).

Columns and labels:
[1] = tested on: MCF-7 breast cancer cells; assay: MTT cell viability assay, MCF-7; type: cell-based, human; conditions: in words
[2] = tested on: BAG-1:HSP70 interaction; conditions: in words; from earlier studies; cited from earlier work
[3] = in words; from earlier studies; cited from earlier work

Row | Structure (SMILES) | Effect on viability of MCF-7 cells [1] | Inhibition of BAG-1:HSP70 interaction [2] | Solubility in water [3]
1 | N=C(N)NCCC[C@H](NC(=O)CN)C(=O)N[C@@H](CCCCN)C(=O)N[C@@H](CCCCN)C(=O)N[C@@H](CCCNC(=N)N)C(=O)N[C@@H](CCCNC(=N)N)C(=O)N[C@@H](CCC(N)=O)C(=O)N[C@@H](CCCNC(=N)N)C(=O)N[C@@H](CCCNC(=N)N)C(=O)N[C@@H](CCCNC(=N)N)C(=O)N1CCC[C@H]1C(=O)N[C@@H](CCC(N)=O)C(N)=O [TAT only] | did not affect the viability of the cells | – | –
2 | CCNc1ccc(-c2nc3ccc(C)cc3s2)cc1 [Thio-2, N-Ethyl-4-(6-methyl-1,3-benzothiazol-2-yl)aniline] | – | moderate inhibition | poor solubility in water
